In US20090131354A1, “miR-126 REGULATED GENES AND PATHWAYS AS TARGETS FOR THERAPEUTIC INTERVENTION” (priority 2007, published 2009):

Key:
Assay type in all cases: cell-based, human
H522 lung cancer cells = assay: Alamar Blue proliferation assay, H522; conditions: relative to NC miRNA (100%)
Excerpt: (§1) The inventors assessed the therapeutic effect of hsa-miR-126 for lung cancer by using 11 individual lung cancer cell lines. To measure cellular proliferation of lung cancer cells, the following non-small cell lung cancer (NSCLC) cells were used: cells derived from lung adenocarcinoma (A549, H1299, H522, H838, Calu-3, HCC827, HCC2935), cells derived from lung squamous cell carcinoma (H520, H226), cells derived from lung bronchioalveolar carcinoma (H1650), and cells derived from lung large cell carcinoma (H460). Synthetic hsa-miR-126 (Pre-miR™-hsa-miR-126, Ambion cat. no. AM17100) or negative control (NC) miRNA (Pre-miR™ microRNA Precursor Molecule-Negative Control #2; Ambion cat. no. AM17111) was delivered via lipid-based transfection into A549, H1299, H522, H838, Calu-3, HCC827, HCC2935, H520, H1650, and H460 cells, and via electroporation into H226 cells.
(§2) Lipid-based reverse transfections were carried out in triplicate according to a published protocol (Ovcharenko et al., 2005) and the following parameters: Cells (5,000-12,000 per 96 well), 0.1-0.2 μl Lipofectamine™ 2000 (cat. no. 11668-019, Invitrogen Corp., Carlsbad, Calif., USA) in 20 μl OptiMEM (Invitrogen), 30 nM final concentration of miRNA in 100 μl. Electroporation of H226 cells was carried out using the BioRad Gene Pulser Xcell™ instrument (BioRad Laboratories Inc., Hercules, Calif., USA) with the following settings: 5×10^6 cells with 5 μg miRNA in 200 μl OptiMEM (1.6 μM miRNA), square wave pulse at 250 V for 5 ms. Electroporated H226 cells were seeded at 7,000 cells per 96-well in a total volume of 100 μl. All cells except for Calu-3 cells were harvested 72 hours post transfection or electroporation for assessment of cellular proliferation. Calu-3 cells were harvested 10 days post transfection. Proliferation assays were performed using Alamar Blue (Invitrogen) following the manufacturer's instructions. As a control for inhibition of cellular proliferation, siRNA against the motor protein kinesin 11, also known as Eg5, was used. […]

H838 lung cancer cells = assay: Alamar Blue proliferation assay, H838; conditions: relative to NC miRNA (100%)
Excerpt: as §1, §2

H520 lung cancer cells = assay: Alamar Blue proliferation assay, H520
Excerpt: as §1, §2

H460 lung cancer cells [1] = assay: Alamar Blue proliferation assay, H460; conditions: for % proliferation: relative to NC miRNA (100%)
Excerpt: as §1
Lipid-based reverse transfections were carried out in triplicate according to a published protocol (Ovcharenko et al., 2005) and the following parameters: Cells (5,000-12,000 per 96 well), 0.1-0.2 μl Lipofectamine™ 2000 (cat. no. 11668-019, Invitrogen Corp., Carlsbad, Calif., USA) in 20 μl OptiMEM (Invitrogen), 30 nM final concentration of miRNA in 100 μl. Electroporation of H226 cells was carried out using the BioRad Gene Pulser Xcell™ instrument (BioRad Laboratories Inc., Hercules, Calif., USA) with the following settings: 5×10^6 cells with 5 μg miRNA in 200 μl OptiMEM (1.6 μM miRNA), square wave pulse at 250 V for 5 ms. Electroporated H226 cells were seeded at 7,000 cells per 96-well in a total volume of 100 μl. All cells except for Calu-3 cells were harvested 72 hours post transfection or electroporation for assessment of cellular proliferation. Calu-3 cells were harvested 10 days post transfection. Proliferation assays were performed using Alamar Blue (Invitrogen) following the manufacturer's instructions. As a control for inhibition of cellular proliferation, siRNA against the motor protein kinesin 11, also known as Eg5, was used. Eg5 is essential for cellular survival of most eukaryotic cells and a lack thereof leads to reduced cell proliferation and cell death (Weil et al., 2002). siEg5 was used in lipid-based transfection following the same experimental parameters that apply to miRNA. The inventors also used a DNA topoisomerase II inhibitor, etoposide, at a final concentration of 10 μM and 50 μM as an internal standard for the potency of miRNAs. Etoposide is an FDA-approved DNA topoisomerase II inhibitor in the treatment of lung cancer. […] Percent (%) proliferation values from the Alamar Blue assay were normalized to values from cells treated with negative control miRNA. […]

H460 lung cancer cells [2] = assay: Pair-wise miRNA combinations, Alamar Blue proliferation; conditions: for % proliferation: mock-transfected cells, 48 h
Excerpt: miRNAs function in multiple pathways controlling multiple cellular processes. Cancer cells frequently show aberrations in several different pathways, which determine their oncogenic properties. […] The inventors assessed the efficacy of pair-wise miRNA combinations, administering hsa-miR-126 concurrently with either hsa-miR-34a, hsa-miR-124a, hsa-miR-147, hsa-let-7b, hsa-let-7c or hsa-let-7g (Pre-miR™ miRNA, Ambion cat. no. AM17100). H460 lung cancer cells were transiently reverse-transfected in triplicates with each miRNA at a final concentration of 300 pM, resulting in 600 pM of oligonucleotide. For negative controls, 600 pM of Pre-miR™ microRNA
Precursor Molecule-Negative Control #2 (Ambion cat. no. AM17111) were used. To correlate the effect of various combinations with the effect of the sole miRNA, each miRNA at 300 pM was also combined with 300 pM negative control miRNA. Reverse transfection was carried using the following parameters: 7,000 cells per 96 well, 0.15 μl Lipofectamine™ 2000 (Invitrogen) in 20 μl OptiMEM (Invitrogen), 100 μl total transfection volume. As an internal control for the potency of miRNA, etoposide was added at 10 μM and 50 μM to mock-transfected cells, 24 hours after transfection for the following 48 hours. Cells were harvested 72 hours after transfection and subjected to Alamar Blue assays (Invitrogen). Percent proliferation values from the Alamar Blue assay were normalized to those obtained from cells treated with 600 pM negative control miRNA. Data are expressed as % proliferation relative to negative control miRNA-treated cells (Table 8).
Additive activity of pair-wise combinations (e.g. hsa-miR-126 plus hsa-let-7b) is defined as an activity that is greater than the sole activity of each miRNA (e.g., the activity of hsa-miR-126 plus hsa-let-7b is greater than that observed for hsa-miR-126 plus NC and the activity of hsa-miR-126 plus hsa-let-7b is greater than that observed for hsa-let-7b plus NC). […]

HCC827 lung cancer cells = assay: Alamar Blue proliferation assay, HCC827; conditions: relative to NC miRNA (100%)
Excerpt: as §1, §2

A549 lung cancer cells = assay: Alamar Blue proliferation assay, A549
Excerpt: as §1, §2

Compound: COc1cc([C@@H]2c3cc4c(cc3[C@@H](O[C@@H]3O[C@@H]5CO[C@@H](C)O[C@H]5[C@H](O)[C@H]3O)[C@H]3COC(=O)[C@H]23)OCO4)cc(OC)c1O [etoposide]
- % proliferation (H522 lung cancer cells; H522, 10 μM): 82.13%
- % proliferation (H522 lung cancer cells; H522, 50 μM): 61.08%
- % proliferation (H838 lung cancer cells; H838, 30 nM): 89.71%
- % proliferation (H838 lung cancer cells; H838, 50 μM): 36.97%
- % proliferation (H520 lung cancer cells; H520, 50 μM, relative to NC miRNA (100%)): 48.53%
- % proliferation (H520 lung cancer cells; H520, relative to NC miRNA (100%)): 66.80%
- % proliferation (H460 lung cancer cells [1]; H460, 10 μM): 32.13%
- % proliferation (H460 lung cancer cells [1]; H460, 50 μM): 27.82%
- % proliferation (H460 lung cancer cells [2]; H460, 10 μM): 20.19%
- % proliferation (H460 lung cancer cells [2]; H460, 50 μM): 14.94%
- % proliferation (HCC827 lung cancer cells; HCC827, 30 nM): 82.53%
- % proliferation (HCC827 lung cancer cells; HCC827, 10 μM): 98.95%
- % proliferation (A549 lung cancer cells; A549, 50 μM, relative to NC miRNA (100%)): 42.18%
- % proliferation (A549 lung cancer cells; A549, relative to NC miRNA (100%)): 49.13%

Compound: hsa-miR-126 (UCGUACCGUGAGUAAUAAUGC; synthetic pre-miR form, further chemistry not given here) [Synthetic hsa-miR-126 (Pre-miR™-hsa-miR-126, Ambion cat. no. AM17100)]
- % proliferation (H522 lung cancer cells; H522, 30 nM, 72 h): 74.62%
- % proliferation (H838 lung cancer cells; H838, 30 nM, 72 h): 74.05%
- % proliferation (H520 lung cancer cells; H520, 30 nM, 72 h, relative to NC miRNA (100%)): 80.99%
- reduction of proliferation (maximal inhibitory activity) (H460 lung cancer cells [1]; H460, 30 nM): 71%
- % proliferation (H460 lung cancer cells [1]; H460, 30 nM, 72 h): 29.09%
- reduction of proliferation (H460 lung cancer cells [2]; H460, 300 pM): 10.54%
- % proliferation (HCC827 lung cancer cells; HCC827, 30 nM, 72 h): 84.31%
- % proliferation (A549 lung cancer cells; A549, 30 nM, 72 h, relative to NC miRNA (100%)): 84.30%
